Reference: ChEMBL document CHEMBL6120961, “Design, Synthesis, and Biological Evaluation of Covalently Mucoadhesive Derivatives as Nonsystemic Intestine-Targeted TGR5 Agonists” (J Med Chem, 2024)
The source made the active and inactive calls. No cut-off for these calls is given here.

How the values were obtained:
Mus musculus [1] = test: Induction of GLP-1 secretion in TGR5-/- mouse model at 50 mg/kg, po preadministered with vildagliptin for 1 hrs followed by compound administration and measured after 4 hrs; format: functional, organism-based
Homo sapiens = species on record: Homo sapiens; test: Binding affinity to mucin (unknown origin) assessed as disappearance of peak at 9.793 retention time incubated for 2 hrs by HPLC analysis
[2] = Apparent permeability across apical to basolateral side in human Caco-2 cells assessed as drug recovery at 2 uM incubated for 2 hrs by LC-MS/MS analysis; format: ADME, cell-based; settings: read-out: Drug recovery
Mus musculus [3] = test: Hypoglycemic activity in diet-induced obese mouse model assessed as reduction in blood glucose AUC (0 to 12 days) level at 50 mg/kg, po administered every day and measured after 12 days relative to control; format: functional; design: scale not given: the % may be the effect or the level left; settings: time 12 day
Mus musculus [4] = test: (§1) Hypoglycemic activity in overnight fasted C57BL/6 mouse assessed as reduction in blood glucose AUC (0 to 120 min) at 50 mg/kg, po preadministered with compound for 60 mins followed by first dose of glucose administration for 120 mins and measured after 120 mins of second glucose administration by oral glucose tolerance test relative to control; format: functional; design: scale not given: the % may be the effect or the level left; settings: time 5 hrs
[5] = Acute toxicity in overnight fasted male C57BL/6J mouse model assessed as effect on total protein level in blood at 50 mg/kg, IG administered for 3 days; format: organism-based; settings: in vivo, po, 72 h, time 3 day
[6] = Acute toxicity in overnight fasted male C57BL/6J mouse model assessed as effect on ALP level in blood at 50 mg/kg, IG administered for 3 days; format: organism-based; settings: in vivo, po, 72 h, time 3 day
[7] = molecular target: T1, G-protein coupled bile acid receptor 1 (Homo sapiens) (UniProt Q8TDU6); test: Agonist activity at TGR5 in human NCI-H716 cells assessed as increase in GLP-1 secretion at 10 uM preincubated with vildagliptin followed by compound addition and measured after 2 hrs by GLP-1(7 to 36) ELISA; format: functional, cell-based; settings: filed as agonist
T1 sequence (whole entry): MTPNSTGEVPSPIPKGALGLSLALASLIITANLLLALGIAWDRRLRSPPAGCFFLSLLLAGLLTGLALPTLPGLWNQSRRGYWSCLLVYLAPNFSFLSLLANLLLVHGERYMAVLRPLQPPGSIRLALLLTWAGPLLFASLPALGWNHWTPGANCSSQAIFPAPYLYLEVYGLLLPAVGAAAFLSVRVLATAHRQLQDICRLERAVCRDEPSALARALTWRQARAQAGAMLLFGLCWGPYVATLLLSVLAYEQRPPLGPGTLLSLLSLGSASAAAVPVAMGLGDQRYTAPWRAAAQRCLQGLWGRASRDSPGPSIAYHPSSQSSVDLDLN

Mus musculus [8] = test: Hypoglycemic activity in diet-induced obese mouse model assessed as reduction in blood glucose level at 50 mg/kg, po administered every day and measured after 4 to 8 days; format: functional, organism-based; settings: time 4-8 day
[9] = Acute toxicity in overnight fasted male C57BL/6J mouse model assessed as increase in AST level in blood at 200 mg/kg, IG administered for 3 days; format: organism-based; settings: in vivo, po, 72 h, time 3 day
[10] = Acute toxicity in overnight fasted male C57BL/6J mouse model assessed as effect on uric acid level in blood at 50 mg/kg, IG administered for 3 days; format: organism-based; settings: in vivo, po, 72 h, time 3 day
[11] = Acute toxicity in overnight fasted male C57BL/6J mouse model assessed as increase in ALT level in blood at 200 mg/kg, IG administered for 3 days; format: organism-based; settings: in vivo, po, 72 h, time 3 day
[12] = Toxicity in overnight fasted male C57BL/6J mouse assessed as increase in bile weight at 50 mg/kg, po measured after 6 hrs; format: organism-based; settings: in vivo
Mus musculus [13] = test: as §1, with “AUC (180” for “AUC (0”, “to 300” for “to 120”; format: functional; design: scale not given: the % may be the effect or the level left; settings: time 5 hrs
[14] = Acute toxicity in overnight fasted male C57BL/6J mouse model assessed as increase in serum uric acid level at 200 mg/kg, IG administered for 3 days; format: organism-based; settings: in vivo, po, 72 h, time 3 day
[15] = Acute toxicity in overnight fasted male C57BL/6J mouse model assessed as histopathological change in liver at 50 to 200 mg/kg, IG administered for 3 days by H and E staining based analysis; format: organism-based; settings: in vivo, po, 72 h, dose 50-200 mg/kg, time 3 day
[16] = Apparent permeability across basolateral to apical side in human Caco-2 cells at 2 uM incubated for 2 hrs by LC-MS/MS analysis; format: ADME, cell-based
[17] = molecular target: T2, G-protein coupled bile acid receptor 1 (Homo sapiens, UniProt Q8TDU6); test: Agonist activity at human TGR5 expressed in HEK293T cells assessed as cAMP production incubated for 30 mins by HTRF assay; format: functional, cell-based
T2 sequence (Q8TDU6 whole entry): T1 sequence (whole entry)

[18] = Acute toxicity in overnight fasted male C57BL/6J mouse model assessed as effect on urea level in blood at 50 mg/kg, IG administered for 3 days; format: organism-based; settings: in vivo, po, 72 h, time 3 day
[19] = Acute toxicity in overnight fasted male C57BL/6J mouse model assessed as effect on ALT level in blood at 50 mg/kg, IG administered for 3 days; format: organism-based; settings: in vivo, po, 72 h, time 3 day
Rattus norvegicus = species on record: Rattus norvegicus; test: Muco-adhesive activity in rat intestine assessed as disappearance of peak at 9.793 retention time incubated for 2 hrs by HPLC analysis; format: functional
[20] = Acute toxicity in overnight fasted male C57BL/6J mouse model assessed as behavioral abnormalities at 50 to 200 mg/kg, IG administered for 3 days; format: organism-based; settings: in vivo, po, 72 h, dose 50-200 mg/kg, time 3 day
[21] = Toxicity in overnight fasted male C57BL/6J mouse assessed as increase in gallbladder volume at 50 mg/kg, iv measured after 2 hrs; format: organism-based; settings: in vivo
Mus musculus [22] = test: In vivo agonist activity at TGR5 in wildtype C57BL/6J mouse assessed as increase in GLP-1 secretion in blood at 50 mg/kg, po preadministered with vildagliptin for 1 hrs followed by compound administration and measured after 4 hrs; format: functional, organism-based
[23] = Apparent permeability across basolateral to apical side in human Caco-2 cells assessed as drug recovery at 2 uM incubated for 2 hrs by LC-MS/MS analysis; format: ADME, cell-based; settings: read-out: Drug recovery
[24] = Acute toxicity in overnight fasted male C57BL/6J mouse model assessed as effect on LDH level in blood at 50 mg/kg, IG administered for 3 days; format: organism-based; settings: in vivo, po, 72 h, time 3 day
[25] = molecular target: T3, G-protein coupled bile acid receptor 1 (Mus musculus, UniProt Q80SS6); test: Agonist activity at mouse TGR5 expressed in HEK293T cells assessed as cAMP production incubated for 30 mins by HTRF assay; format: cell-based
T3 sequence (Q80SS6 whole entry): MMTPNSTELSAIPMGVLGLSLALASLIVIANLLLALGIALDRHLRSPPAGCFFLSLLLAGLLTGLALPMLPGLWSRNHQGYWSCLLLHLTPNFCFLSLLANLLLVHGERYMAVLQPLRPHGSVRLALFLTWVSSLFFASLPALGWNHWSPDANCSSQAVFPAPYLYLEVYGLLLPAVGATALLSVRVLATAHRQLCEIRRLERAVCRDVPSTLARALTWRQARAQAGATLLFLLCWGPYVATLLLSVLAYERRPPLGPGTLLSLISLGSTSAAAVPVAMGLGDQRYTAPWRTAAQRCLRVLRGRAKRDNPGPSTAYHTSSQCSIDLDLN

Mus musculus [26] = test: as §1, with “level” for “AUC (0 to 120 min)”, “test” for “test relative to control”; format: functional, organism-based; settings: time 5.0 hrs
Mus musculus [27] = test: Insulin sensitizing activity in over-night fasted male C57BL/6J mouse model assessed as reduction in plasma glucose AUC level at 50 mg/kg, po preadministered with compound for 60 mins followed by insulin administration and measured after 120 mins by insulin tolerance test; format: functional, organism-based; settings: time 180.0 min
[28] = Toxicity in overnight fasted male C57BL/6J mouse assessed as increase in bile weight at 50 mg/kg, iv measured after 2 hrs; format: organism-based; settings: in vivo
Mus musculus [29] = test: Hypoglycemic activity in TGR5-/- mouse model assessed as reduction in blood glucose level at 50 mg/kg, po preadministered with compound for 60 mins followed by glucose administration and measured after 120 mins by oral glucose tolerance test; format: functional, organism-based; settings: time 180.0 min
Mus musculus [30] = test: Hypoglycemic activity in non-fasted diabetic db/db mouse model assessed as decrease in plasma HbA1c level at 50 mg/kg, IG administered once daily for 28 days by glycosylated hemoglobin (GHb) assay; format: functional, organism-based; settings: time 28.0 day
[31] = Acute toxicity in overnight fasted male C57BL/6J mouse model assessed as effect on […] level in blood at 50 mg/kg, IG administered for 3 days; format: organism-based; settings: in vivo, po, 72 h, time 3 day
[32] = Apparent permeability across apical to basolateral side in human Caco-2 cells at 2 uM incubated for 2 hrs by LC-MS/MS analysis; format: ADME, cell-based
[33] = Toxicity in overnight fasted male C57BL/6J mouse assessed as increase in gallbladder volume at 50 mg/kg, po measured after 6 hrs; format: organism-based; settings: in vivo
[34] = Acute toxicity in overnight fasted male C57BL/6J mouse model assessed as effect on AST level in blood at 50 mg/kg, IG administered for 3 days; format: organism-based; settings: in vivo, po, 72 h, time 3 day
[35] = Apparent permeability across basolateral to apical side in human Caco-2 cells assessed as drug recovery at 10 uM incubated for 2 hrs by LC-MS/MS analysis
[36] = Efflux ratio of apparent permeability across basolateral to apical over apical to basolateral side in human Caco-2 cells at 10 uM incubated for 2 hrs by LC-MS/MS analysis
[37] = Apparent permeability across basolateral to apical side in human Caco-2 cells at 10 uM incubated for 2 hrs by LC-MS/MS analysis
[38] = Apparent permeability across apical to basolateral side in human Caco-2 cells assessed as drug recovery at 10 uM incubated for 2 hrs by LC-MS/MS analysis
[39] = Apparent permeability across apical to basolateral side in human Caco-2 cells at 10 uM incubated for 2 hrs by LC-MS/MS analysis

Structure (SMILES): O=C(CCCCCN1C(=O)C=CC1=O)NCCCCCCNC(=O)CCc1cc(Cl)c(Oc2ccncc2C(=O)N2CCN(C3CC3)c3ccccc32)cc1Cl
- Activity (Mus musculus [1]): inactive
- Activity (Homo sapiens): Active
- recovery at 2 h, 2 µM [2]: < 1.1%
- Activity (Mus musculus [3]): 10.4%
- Activity (Mus musculus [4]): 19.5%
- Activity [5]: Non-toxic
- Activity [6]: Non-toxic
- Activity [7]: Active
- Activity (Mus musculus [8]): Active
- Activity [9]: Toxic
- Activity [10]: Non-toxic
- Activity [11]: Toxic
- Activity [12]: Non-toxic
- Activity (Mus musculus [13]): 15.9%
- Activity [14]: Toxic
- Activity [15]: Non-toxic
- Papp B→A at 2 h, 2 µM [16]: < 0.432 ×10⁻⁶ cm/s
- EC50 [17]: 166 nM
- Activity [18]: Non-toxic
- Activity [19]: Non-toxic
- Activity (Rattus norvegicus): Active
- Activity [20]: Non-toxic
- Activity [21]: Toxic
- Activity (Mus musculus [22]): Active
- recovery at 2 h, 2 µM [23]: < 22.8%
- Activity [24]: Non-toxic
- EC50 [25]: 138 nM
- Activity (Mus musculus [26]): Active
- Activity (Mus musculus [27]): Active
- Activity [28]: Toxic
- Activity (Mus musculus [29]): inactive
- Activity (Mus musculus [30]): Active
- Activity [31]: Non-toxic
- Papp A→B at 2 h, 2 µM [32]: < 0.48 ×10⁻⁶ cm/s
- Activity [33]: Non-toxic
- Activity [34]: Non-toxic

Structure (SMILES): O=C(CCCCCN1C(=O)C=CC1=O)NCCCCCCCCNC(=O)CCc1cc(Cl)c(Oc2ccncc2C(=O)N2CCN(C3CC3)c3ccccc32)cc1Cl
- EC50 [17]: 355 nM
- EC50 [25]: 400 nM
- Activity (Mus musculus [26]): inactive

Structure (SMILES): O=C(c1cnccc1Oc1cc(Cl)ccc1Cl)N1CCN(C2CC2)c2ccccc21
- Activity [12]: Toxic
- Activity [33]: Toxic

Structure (SMILES): O=C(CCCCCN1C(=O)C=CC1=O)NCCCCNC(=O)CCc1cc(Cl)c(Oc2ccncc2C(=O)N2CCN(C3CC3)c3ccccc32)cc1Cl
- EC50 [17]: 200 nM
- EC50 [25]: 835 nM
- Activity (Mus musculus [26]): inactive

Structure (SMILES): C[C@H]1O[C@@H](O[C@H]2[C@@H](O)C[C@H](O[C@H]3[C@@H](O)C[C@H](O[C@H]4CC[C@@]5(C)[C@H](CC[C@@H]6[C@@H]5C[C@@H](O)[C@]5(C)[C@@H](C7=CC(=O)OC7)CC[C@]65O)C4)O[C@@H]3C)O[C@@H]2C)C[C@H](O)[C@@H]1O [DIGOXIN]
- recovery at 2 h, 10 µM [35]: 103%
- efflux ratio at 2 h, 10 µM [36]: 535
- Papp B→A at 2 h, 10 µM [37]: 13.1 ×10⁻⁶ cm/s
- recovery at 2 h, 10 µM [38]: 102%
- Papp A→B at 2 h, 10 µM [39]: 0.024 ×10⁻⁶ cm/s

Structure (SMILES): CC(C)(C)NCC(O)COc1cccc2c1CC(O)C(O)C2 (configuration not stated) [NADOLOL]
- recovery at 2 h, 2 µM [2]: 102%

Structure (SMILES): COCCc1ccc(OCC(O)CNC(C)C)cc1 (configuration not stated) [METOPROLOL]
- recovery at 2 h, 2 µM [2]: 104%
- Papp A→B at 2 h, 2 µM [32]: 18.8 ×10⁻⁶ cm/s
